Data on seven compounds can be found in ChEMBL document CHEMBL1155431, “Antimicrobial activity of long-chain (E)-3-alken-2-ones” (2010).

The MIC is the lowest concentration found to suppress growth. A lower MIC goes with greater potency.

The test system of assay [1] is Escherichia coli. Kind of assay: Antimicrobial activity against Escherichia coli ATCC 9637 after 2 days by two fold serial broth dilution method. It counts as functional, organism-based. Background: Dilution methods test growth across graded concentrations, often in twofold steps.
The subject of assay [2] is Klebsiella aerogenes. Kind of assay: Antimicrobial activity against Enterobacter aerogenes ATCC 13048 after 2 days by two fold serial broth dilution method. The assay is classed as functional, organism-based.
Assay [3] relates to Pseudomonas aeruginosa. Kind of assay: Antimicrobial activity against Pseudomonas aeruginosa ATCC 10145 after 2 days by two fold serial broth dilution method. The assay is classed as functional, organism-based.
For assay [4], the system named is Saccharomyces cerevisiae. The experiment in a line: Antimicrobial activity against Saccharomyces cerevisiae ATCC 7754 after 2 days by two fold serial broth dilution method. It counts as functional, organism-based.
For assay [5], the system named is Malassezia. The experiment in a line: Antimicrobial activity against Pityrosporum ovale ATCC 14521 after 3 days by two fold serial broth dilution method. The assay is classed as functional. The following applies: ATCC 14521, 72 h.

Structures are written as SMILES. Converted amounts (≈) assume the structure as drawn. The source made the active and inactive calls. The calls are words filed in the database; no cut-off is given here. A value given as a limit tells only on which side of the number the result lay.

`CCCCCCCCC/C=C/C(C)=O`: the result in assay [1], in assay [2], in assay [3] and in assay [4] was inactive. The compound also displayed an MIC in assay [5] of 100 µg/mL (≈ 509 µM).
For the compound `CCCCCCCCCCCC/C=C/C(C)=O`, the MIC in assay [5] is > 800 µg/mL.
In turn, `CCCCCCCCCC/C=C/C(C)=O` gave an MIC in assay [5] of 100 µg/mL (≈ 475 µM).
Regarding `CCCCCCCCCCCCC/C=C/C(C)=O`, the MIC in assay [5] is > 800 µg/mL.
In the case of `CCCCCCC/C=C/C(C)=O`, in assay [5], 100 µg/mL (≈ 594 µM) was the least that counted as inhibitory (MIC).
In assay [5], `CCCCCCCCCCC/C=C/C(C)=O` had an MIC of 400 µg/mL (≈ 1780 µM).
In assay [5], `CCCCCCCC/C=C/C(C)=O` returned an MIC of 100 µg/mL (≈ 549 µM).
